Reference: ChEMBL document CHEMBL1150148, “Isolation and structure elucidation of an isoflavone and a sesterterpenoic acid from Henriettella fascicularis” (J Nat Prod, 2002)

How the values were obtained:
Estrogen receptor beta = Estrogen receptor beta (Homo sapiens, UniProt Q92731)
Description: Displacement of [3H]estradiol from human recombinant ERbeta

Estrogen receptor = target: T1, Estrogen receptor (Homo sapiens, UniProt P03372)
T1 sequence (P03372 whole entry): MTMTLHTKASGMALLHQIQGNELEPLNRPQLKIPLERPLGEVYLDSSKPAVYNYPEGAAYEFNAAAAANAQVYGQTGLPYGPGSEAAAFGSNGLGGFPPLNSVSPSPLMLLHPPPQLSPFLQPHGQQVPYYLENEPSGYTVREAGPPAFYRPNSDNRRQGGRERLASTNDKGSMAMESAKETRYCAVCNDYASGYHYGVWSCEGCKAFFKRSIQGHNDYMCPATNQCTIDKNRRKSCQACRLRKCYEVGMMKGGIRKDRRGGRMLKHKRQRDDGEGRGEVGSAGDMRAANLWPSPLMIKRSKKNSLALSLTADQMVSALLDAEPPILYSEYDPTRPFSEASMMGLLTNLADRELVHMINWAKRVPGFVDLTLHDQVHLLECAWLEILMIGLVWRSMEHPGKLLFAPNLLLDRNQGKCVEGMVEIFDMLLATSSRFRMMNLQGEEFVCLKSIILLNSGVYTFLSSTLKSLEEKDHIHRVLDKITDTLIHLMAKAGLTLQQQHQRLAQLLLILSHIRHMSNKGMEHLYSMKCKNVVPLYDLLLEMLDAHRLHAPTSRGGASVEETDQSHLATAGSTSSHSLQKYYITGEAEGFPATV

Ishikawa [1] = assay: Estrogenic activity in human Ishikawa cells assessed as induction of alkaline phosphatase activity after 4 days by para-nitrophenol release assay; format: functional, cell-based; conditions: 96 h
Ishikawa [2] = assay: Antiestrogenic activity in human Ishikawa cells assessed as inhibition of estradiol-induced induction of alkaline phosphatase activity after 4 days by para-nitrophenol release assay; format: functional, cell-based; conditions: 96 h
Ishikawa [3] = assay: Antiestrogenic activity in human Ishikawa cells assessed as inhibition of estradiol-induced induction of alkaline phosphatase activity at 20 uM after 4 days by para-nitrophenol release assay; format: functional; conditions: 96 h

Chain of Estrogen receptor beta (Q92731 whole entry): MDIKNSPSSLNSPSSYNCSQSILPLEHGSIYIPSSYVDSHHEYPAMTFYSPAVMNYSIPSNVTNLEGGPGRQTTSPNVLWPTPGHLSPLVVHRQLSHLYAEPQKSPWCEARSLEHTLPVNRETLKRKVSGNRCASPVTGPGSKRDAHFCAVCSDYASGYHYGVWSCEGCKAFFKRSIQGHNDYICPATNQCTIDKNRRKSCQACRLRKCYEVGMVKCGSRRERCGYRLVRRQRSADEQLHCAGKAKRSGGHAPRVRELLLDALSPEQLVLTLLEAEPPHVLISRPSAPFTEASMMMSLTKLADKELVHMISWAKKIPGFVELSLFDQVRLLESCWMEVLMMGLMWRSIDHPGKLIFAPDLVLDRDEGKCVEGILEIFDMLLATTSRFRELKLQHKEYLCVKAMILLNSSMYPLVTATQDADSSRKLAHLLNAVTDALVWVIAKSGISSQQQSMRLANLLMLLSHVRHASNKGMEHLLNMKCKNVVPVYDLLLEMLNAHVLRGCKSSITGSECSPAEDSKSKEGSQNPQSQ

SMILES	IC50 (Estrogen receptor beta) [µM]	IC50 (Estrogen receptor) [µM]	IC50 (Ishikawa [1]) [µM]	IC50 (Ishikawa [2]) [µM]	inhibition at 20 µM (Ishikawa [3]) [%]
Cc1c(O)c(C)c2occ(-c3ccc(O)cc3)c(=O)c2c1O	0.88	10.2	> 20	10.5	
O=c1c(-c2ccc(O)cc2)coc2cc(O)cc(O)c12 [GENISTEIN]			0.51		
O=c1cc(-c2ccc(O)cc2)oc2cc(O)cc(O)c12 [APIGENIN]					25
